Data taken from US9884063B2, “Amido-substituted azole compounds” (Bayer Pharma Aktiengesellschaft, priority 2014, dated 2018).

Assays:
[1] = target: T1, TNKS1 (Homo sapiens, UniProt O95271); test: Modified TNKS1 Assay 3 (BPS kit #80573, biotin-NAD+, 96 well); type: biochemical; conditions: human TNKS1, BPS kit #80573, 96 well
T1 sequence (O95271 1-1327): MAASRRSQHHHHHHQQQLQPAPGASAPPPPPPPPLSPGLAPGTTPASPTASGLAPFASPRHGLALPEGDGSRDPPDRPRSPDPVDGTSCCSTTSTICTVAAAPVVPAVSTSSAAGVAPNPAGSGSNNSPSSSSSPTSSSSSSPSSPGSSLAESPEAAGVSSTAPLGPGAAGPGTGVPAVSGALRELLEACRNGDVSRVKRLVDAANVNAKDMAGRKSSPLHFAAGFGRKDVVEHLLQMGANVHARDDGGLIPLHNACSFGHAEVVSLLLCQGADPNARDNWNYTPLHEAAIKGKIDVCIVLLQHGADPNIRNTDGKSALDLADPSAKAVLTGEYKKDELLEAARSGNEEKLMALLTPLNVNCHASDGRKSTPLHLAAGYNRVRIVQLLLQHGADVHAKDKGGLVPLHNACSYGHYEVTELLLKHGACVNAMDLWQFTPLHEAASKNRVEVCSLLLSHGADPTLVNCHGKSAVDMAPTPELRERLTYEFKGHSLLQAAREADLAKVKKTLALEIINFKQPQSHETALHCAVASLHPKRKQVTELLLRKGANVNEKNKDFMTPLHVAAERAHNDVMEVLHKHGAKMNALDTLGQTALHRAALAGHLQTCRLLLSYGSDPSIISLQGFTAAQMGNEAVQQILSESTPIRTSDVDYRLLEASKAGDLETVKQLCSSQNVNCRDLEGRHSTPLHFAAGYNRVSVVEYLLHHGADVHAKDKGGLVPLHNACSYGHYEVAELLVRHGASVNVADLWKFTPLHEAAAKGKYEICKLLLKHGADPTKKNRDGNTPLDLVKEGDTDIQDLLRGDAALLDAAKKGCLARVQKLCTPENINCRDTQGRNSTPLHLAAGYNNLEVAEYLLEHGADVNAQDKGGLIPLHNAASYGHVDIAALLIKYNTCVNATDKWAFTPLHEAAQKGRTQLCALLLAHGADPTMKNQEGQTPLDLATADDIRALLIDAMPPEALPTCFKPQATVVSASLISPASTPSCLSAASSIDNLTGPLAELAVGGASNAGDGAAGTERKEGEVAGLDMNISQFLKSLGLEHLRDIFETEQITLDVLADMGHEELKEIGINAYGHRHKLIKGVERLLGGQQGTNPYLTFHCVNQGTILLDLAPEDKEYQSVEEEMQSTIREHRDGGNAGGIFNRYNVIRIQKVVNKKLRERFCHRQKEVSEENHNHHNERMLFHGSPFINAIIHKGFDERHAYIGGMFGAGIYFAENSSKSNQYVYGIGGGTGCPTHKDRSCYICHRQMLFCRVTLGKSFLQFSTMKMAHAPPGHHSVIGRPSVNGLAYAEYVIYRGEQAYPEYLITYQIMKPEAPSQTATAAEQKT
Outline: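 Chemiluminescent assay of TNKS1-catalysed ribosylation of a protein substrate with biotin-labelled NAD+, detected via streptavidin-HRP; run per kit protocol. Inhibition lowers the signal, and IC50 is the compound concentration halving the normalised readout.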

[2] = test system: HEK293 FOP control reporter cell line; test: HEK293 FOP Assay (FOP control vector luciferase reporter); type: cell-based; conditions: Homo sapiens
Outline: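 Compound series 50 μM to 15 nM, 3.16-fold steps, were diluted in CAFTY buffer (pH 7.4, 2 mM Ca2+, 0.01% BSA) and tested alongside the TOP reporter line. Human Wnt-3a was added at 2500–5 ng/ml in two-fold steps. The control HEK293 line stably holds an FOP vector whose TCF elements are randomized and non-functional.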

[3] = HEK293 FOP control reporter cell line, 16 hours incubation, compound dilution series 50 μM to 15 nM
[4] = HEK293 FOP control reporter cells, 16 hours, luciferase, dilution series from 50 μM

CC(CN1CCOCC1)NC(=O)c1[nH]cnc1C(=O)Nc1ccc(NC(=O)c2ccc(F)cc2Cl)cc1 (single isomer, unassigned; enantiomer 2) [Example 270, N^4-{4-[(2-chloro-4-fluorobenzoyl)amino]phenyl}-N^5-[1-(morpholin-4-yl)propan-2-yl]-1H-imidazole-4,5-dicarboxamide (enantiomer 2)]
IC50 [1]: 7 nM

CNC(=O)c1nc[nH]c1C(=O)Nc1ccc(NC(=O)c2ccccc2)cc1 [Example 21, N^5-[4-(benzoylamino)phenyl]-N^4-methyl-1H-imidazole-4,5-dicarboxamide]
IC50 [2, 3]: 35 µM
IC50 [2, 4]: 35 µM

O=C(Nc1ccc(NC(=O)c2[nH]cnc2C(=O)N2CCOCC2)cc1)c1ccc(F)cc1Cl [Example 29, N-{4-[(2-chloro-4-fluorobenzoyl)amino]phenyl}-5-(morpholin-4-ylcarbonyl)-1H-imidazole-4-carboxamide]
IC50 [2, 4]: ≥ 50 µM

CNC(=O)c1nc[nH]c1C(=O)Nc1ccc(NC(=O)c2c(Cl)cccc2C(F)(F)F)cc1 [Example 36, N^5-(4-{[2-chloro-6-(trifluoromethyl)benzoyl]amino}phenyl)-N^4-methyl-1H-imidazole-4,5-dicarboxamide]
IC50 [2, 4]: ≥ 50 µM

CCc1ccccc1C(=O)Nc1ccc(NC(=O)c2[nH]cnc2C(=O)NC)cc1 [Example 39, N^5-{4-[(2-ethylbenzoyl)amino]phenyl}-N^4-methyl-1H-imidazole-4,5-dicarboxamide]
IC50 [2, 3]: 5.5 µM
IC50 [2, 4]: 5.5 µM

CN1CC2(C1)CN(C(=O)c1nc[nH]c1C(=O)Nc1ccc(NC(=O)c3ccc(F)cc3Cl)cc1)C2 [Example 46, N-{4-[(2-chloro-4-fluorobenzoyl)amino]phenyl}-4-[(6-methyl-2,6-diazaspiro[3.3]hept-2-yl)carbonyl]-1H-imidazole-5-carboxamide]
IC50 [2, 3]: 12 µM

O=C(Nc1ccc(NC(=O)c2[nH]cnc2C(=O)NCCC2CCCC2)cc1)c1cc(F)c(F)cc1Cl [Example 48, N^5-{4-[(2-chloro-4,5-difluorobenzoyl)amino]phenyl}-N^4-(2-cyclopentylethyl)-1H-imidazole-4,5-dicarboxamide]
IC50 [2, 3]: 17 µM

O=C(Nc1ccc(NC(=O)c2[nH]cnc2C(=O)NC2CC2)cc1)c1cc(F)c(F)cc1Cl [Example 51, N^5-{4-[(2-chloro-4,5-difluorobenzoyl)amino]phenyl}-N^4-cyclopropyl-1H-imidazole-4,5-dicarboxamide]
IC50 [1]: 230 nM

O=C(Nc1ccc(NC(=O)c2[nH]cnc2C(=O)N2CC3(COC3)C2)cc1)c1cc(F)c(F)cc1Cl [Example 52, N-{4-[(2-chloro-4,5-difluorobenzoyl)amino]phenyl}-4-(2-oxa-6-azaspiro[3.3]hept-6-ylcarbonyl)-1H-imidazole-5-carboxamide]
IC50 [1]: > 500 nM

CNC(=O)c1nc[nH]c1C(=O)Nc1ccc(NC(=O)c2ccccc2OC)cc1 [Example 60, N^5-{4-[(2-methoxybenzoyl)amino]phenyl}-N^4-methyl-1H-imidazole-4,5-dicarboxamide]
IC50 [2, 3]: 9.75 µM

O=C(Nc1ccc(NC(=O)c2[nH]cnc2C(=O)NCCN2CCCCC2)cc1)c1ccc(F)cc1I [Example 62, N^5-{4-[(4-fluoro-2-iodobenzoyl)amino]phenyl}-N^4-[2-(piperidin-1-yl)ethyl]-1H-imidazole-4,5-dicarboxamide]
IC50 [2, 3]: 24 µM

Cc1nc(C(=O)Nc2ccc(NC(=O)c3ccc(F)cc3Cl)cc2)c(C(=O)NCCN(C)C)[nH]1 [Example 66, N^4-{4-[(2-chloro-4-fluorobenzoyl)amino]phenyl}-N^5-[2-(dimethylamino)ethyl]-2-methyl-1H-imidazole-4,5-dicarboxamide]
IC50 [2, 3]: 6.2 µM

CN(C)CCNC(=O)c1nc[nH]c1C(=O)Nc1ccc(NC(=O)c2ccc(F)cc2Cl)c(F)c1 [Example 73, N^5-{4-[(2-chloro-4-fluorobenzoyl)amino]-3-fluorophenyl}-N^4-[2-(dimethylamino)ethyl]-1H-imidazole-4,5-dicarboxamide]
IC50 [2, 3]: 33 µM

CCNC(=O)c1nc[nH]c1C(=O)Nc1ccc(NC(=O)c2cnccc2Cl)cc1 [Example 263, N^5-(4-{[(4-chloropyridin-3-yl)carbonyl]amino}phenyl)-N^4-ethyl-1H-imidazole-4,5-dicarboxamide]
IC50 [2, 3]: 27.5 µM

CCNC(=O)c1nc[nH]c1C(=O)Nc1ccc(NC(=O)c2cc(OC)ccc2Cl)cc1 [Example 264, N^5-{4-[(2-chloro-5-methoxybenzoyl)amino]phenyl}-N^4-ethyl-1H-imidazole-4,5-dicarboxamide]
IC50 [2, 3]: 16 µM

O=C(Nc1ccc(NC(=O)c2nc[nH]c2C(=O)NCCN2CCC(F)(F)C2)cc1)c1ccc(F)cc1Cl [Example 279, N^4-{4-[(2-chloro-4-fluorobenzoyl)amino]phenyl}-N^5-[2-(3,3-difluoropyrrolidin-1-yl)ethyl]-1H-imidazole-4,5-dicarboxamide]
IC50 [2, 3]: 12 µM

CN1CCCC(CNC(=O)c2[nH]cnc2C(=O)Nc2ccc(NC(=O)c3ccc(F)cc3Cl)cc2)C1 (stereo not drawn) [Example 298, N^4-{4-[(2-chloro-4-fluorobenzoyl)amino]phenyl}-N^5-[(1-methylpiperidin-3-yl)methyl]-1H-imidazole-4,5-dicarboxamide]
IC50 [2, 3]: 17 µM

O=C(Nc1ccc(NC(=O)c2ocnc2C(=O)NCCN2CCCCC2)cc1)c1ccc(F)cc1Cl [Example 303, N^5-{4-[(2-chloro-4-fluorobenzoyl)amino]phenyl}-N^4-[2-(piperidin-1-yl)ethyl]-1,3-oxazole-4,5-dicarboxamide]
IC50 [2, 3]: 8.1 µM

CNC(=O)c1nc[nH]c1C(=O)Nc1ccc(NC(=O)c2cc(Cl)ccc2Cl)cc1 [Example 309, N^5-{4-[(2,5-dichlorobenzoyl)amino]phenyl}-N^4-methyl-1H-imidazole-4,5-dicarboxamide]
IC50 [2, 3]: 38 µM

CNC(=O)c1nc[nH]c1C(=O)Nc1ccc(NC(=O)c2cc(Br)ccc2Cl)cc1 [Example 313, N^5-{4-[(5-bromo-2-chlorobenzoyl)amino]phenyl}-N^4-methyl-1H-imidazole-4,5-dicarboxamide]
IC50 [2, 3]: 25 µM

CNC(=O)c1nc[nH]c1C(=O)Nc1ccc(NC(=O)c2ccc(Cl)cc2F)cc1 [Example 333, N^5-{4-[(4-chloro-2-fluorobenzoyl)amino]phenyl}-N^4-methyl-1H-imidazole-4,5-dicarboxamide]
IC50 [2, 3]: 40 µM

CC(C)N(CCNC(=O)c1nc[nH]c1C(=O)Nc1ccc(NC(=O)c2ccc(F)cc2Cl)cc1)C(C)C [Example 389, N^5-{4-[(2-chloro-4-fluorobenzoyl)amino]phenyl}-N^4-{2-[di(propan-2-yl)amino]ethyl}-1H-imidazole-4,5-dicarboxamide]
IC50 [2, 3]: 11 µM

CC1(C)CC(NC(=O)c2nc[nH]c2C(=O)Nc2ccc(NC(=O)c3ccc(F)cc3Cl)cc2)CCO1 (stereo not drawn) [Example 391, N^5-{4-[(2-chloro-4-fluorobenzoyl)amino]phenyl}-N^4-(2,2-dimethyltetrahydro-2H-pyran-4-yl)-1H-imidazole-4,5-dicarboxamide]
IC50 [2, 3]: 27 µM

CCN1CCC[C@@H]1CNC(=O)c1nc[nH]c1C(=O)Nc1ccc(NC(=O)c2ccc(F)cc2Cl)cc1 [Example 413, N^5-{4-[(2-chloro-4-fluorobenzoyl)amino]phenyl}-N^4-{[(2R)-1-ethylpyrrolidin-2-yl]methyl}-1H-imidazole-4,5-dicarboxamide]
IC50 [2, 3]: 26 µM

CN1CCN(CC(C)(C)CNC(=O)c2nc[nH]c2C(=O)Nc2ccc(NC(=O)c3ccc(F)cc3Cl)cc2)CC1 [Example 415, N^5-{4-[(2-chloro-4-fluorobenzoyl)amino]phenyl}-N^4-[2,2-dimethyl-3-(4-methylpiperazin-1-yl)propyl]-1H-imidazole-4,5-dicarboxamide]
IC50 [2, 3]: 7.8 µM
